In patent publication US11266617B2, “Beta-hydroxybutyrate encapsulated PLGA nanoparticle compositions” (Massachusetts Institute of Technology, priority 2018, dated 2022):

Tests used:
Hmgcs2-null ISCs = assay: Organoid-forming assay with Hmgcs2-null crypts/ISCs; format: cell-based, mouse; conditions: for organoid-forming capacity of Hmgcs2-null ISCs: lactate at comparable concentrations, day-5-to-7 organoids
Excerpt: FIGS. 11A-11N. Characterization of fatty acid oxidation (FAO) and ketogenesis in intestinal crypts. Related to FIG. 4. FIG. 11A, Schematic of the mouse model for intestinal Cpt1a deletion with the timeline for tamoxifen (TAM) injections and tissue collection. FIG. 11B, Immunohistochemistry (IHC) for CPT1a (rate limiting step of FAO) and FIG. 11C, HMGCS2 levels in WT and intestinal Cpt1a loss. Images represent one of 5 biological replicates per group. FIG. 11D, βOHB levels in Cpt1a-null intestinal crypts. n=8 measurements for 4 mice per group. […] The image represents one of 8 biological replicates. FIG. 11F, IHC for HMGCS2, indicating intact HMGCS2 expression in the absence of Paneth cell. The image represents one of 8 biological replicates. For FIGS. 11C-11F, Scale bar: 50 um. FIG. 11G, Schematic of the mouse model for intestinal Hmgcs2 deletion with the timeline for TAM injections and tissue collection. FIG. 11H, Hepatic and intestinal HMGCS2 expression by IHC and FIG. 11I, serum βOHB levels in Hmgcs2-KO mice. FIG. 11J, Intestinal CPT1a expression in mice with conditional intestinal loss of Hmgcs2 by IHC, Scale bar: 100 um. The image represents one of 5 biological replicates. […] FIG. 11L, Organoid-forming assay for number of organoids per intestinal crypt, numbers of Alcian blue^+ goblet cells (black arrows) and percentage of tdTomato^+ area per organoid from WT and Hmgcs2-KO (−/−) ISCs, ±βOHB treatments: +, 10 uM and ++50 uM. Representative images: day-5-to-7 organoids. Scale bar: 50 μm. n=5 mice. […] N, Synthesis of glycerol tri((R)-3-hydroxybutyrate).
As previously reported and briefly summarized here (Mihaylova et al., 2018), small intestines were removed, washed with cold PBS, opened longitudinally and then incubated on ice with PBS plus EDTA (10 mM) for 30-45 min. Tissues were then moved to PBS. Crypts were then mechanically separated from the connective tissue by shaking or by scraping, and then filtered through a 70-μm mesh into a 50-mL conical tube to remove villus material and tissue fragments. Isolated crypts for cultures were counted and embedded in Matrigel™ (Corning 356231 growth factor reduced) at 5-10 crypts per μL and cultured in a modified form of medium as described previously (Sato et al., 2009; Yilmaz et al., 2012). Unless otherwise noted, crypt culture media consists of Advanced DMEM (Gibco) that was supplemented with EGF 40 ng mL^−1 (PeproTech), Noggin 200 ng mL^−1 (PeproTech), R-spondin 500 ng mL^−1 (R&D, Sino Bioscience or (Ootani et al., 2009)), N-acetyl-L-cysteine […] (Sigma-Aldrich), N2 1× (Life Technologies), B27 1× (Life Technologies), CHIR99021 3 μM (LC laboratories), and Y-27632 dihydrochloride monohydrate 10 μM (Sigma-Aldrich). Intestinal crypts were cultured in the above-mentioned media in 20-25 μL droplets of Matrigel™ were plated onto a flat bottom 48-well plate (Corning 3548) and allowed to solidify for 20-30 minutes in a 37° C. incubator. Three hundred microliters of crypt culture medium was then overlaid onto the Matrigel™, changed every three days, and maintained at 37° C. in fully humidified chambers containing 5% CO2. Clonogenicity (colony-forming efficiency) was calculated by plating 50-300 crypts and assessing organoid formation 3-7 days or as specified after initiation of cultures. β-Hydroxybutyrate (Sigma, 54965), Quisinostat (JNJ-26481585) 2HCl (Selleckchem, S1096), Entinostat (MS-275) (Selleckchem, S1053), Trichostatin A (Selleckchem, 51045) and γ-secretase inhibitor MK-0752 (Cayman Chemical Company, 471905-41-6) were added into cultures as indicated in the figure legends. Plasmids for Hdac1 CRISPR-deletion (sc-436647), Cre-expression (sc-418923), Cre-expression and Hmgcs2 CRISPR-deletion (VB180615-1103gue) were used for organoid transfection according to manufacturers' instructions.
If not directly used for cultures, crypts were then dissociated into single cells and sorted by flow cytometry. […]

Lgr5+ ISCs = assay: Intestinal regeneration after irradiation in Hmgcs2-KO mice (Lgr5 lineage tracing); format: in vivo, mouse; conditions: Hmgcs2-null mice; 1 mg/kg, 5 i.p. injections; XRT 7.5 Gy×2
Excerpt: FIG. 4F, Schematic (top) of the mouse model including the timeline of tamoxifen (TAM) injection, oral administration of nanoparticle PLGA encapsulated βOHB or non-encapsulated βOHB oligomers, irradiation (XRT, 7.5 Gy×2) and tissue collection. Quantification (bottom) and representative images (right) of tdTomato+ Lgr5^+ ISC-derived lineage (cell progenies) by IHC. Scale bar: 100 μm. n>25 crypts per measurement, n>5 measurements per mouse and n>3 mice per group. […] Data in dot plots were expressed as mean+/−s.e.m. *p<0.05, **p<0.01, ***p<0.005.

intestinal crypts = assay: HDAC inhibitor treatment of Hmgcs2-null mice, crypt histology (NICD, H3K27ac, OLFM4, LYZ, AB/PAS); format: in vivo, mouse; conditions: 1 mg/kg, 5 i.p. injections
Hes1-GFP organoids = assay: Hes1-GFP organoid reporter assay (GFP by flow cytometry); format: cell-based, mouse; conditions: GSI 10 uM, βOHB 50 uM, JNJ-26481585 0.2 nM; compared to control
Method: FIGS. 5A-5G show βOHB-mediated HDAC inhibition enhances NOTCH signaling. FIG. 5A, Violin plots of genes related to FIG. 12A: Notch receptor Notch1, Class I HDAC genes: HDAC1/2/3 and Notch target Hes1, based on a previously published scRNA-Seq data (Haber et al., 2017). FIG. 5B, Representative flow cytometry plots (top) and quantification of GFP expression (bottom) Hes1-GFP+ primary organoids exposed to γ-secretase inhibitor (GSI, 10 uM), βOHB (50 uM) and HDAC inhibitor (JNJ-26481585, 0.2 nM), compared to control condition. n=6 samples per treatment from n=3 mice. FIG. 5C, Organoid-forming assay for intestinal crypts isolated from WT and Hmgcs2-KO mice, with combinations of HDAC inhibitor JNJ-26481585 (JNJ) or βOHB treatments or Notch receptor inhibitor (GSI, gamma secretase inhibitor). Quantification and representative images: day-5-to-7 organoids. n=4 mice. Scale bar: 500 μm. Arrows indicate organoids and asterisks indicate aborted crypts. FIG. 5D, Schematic (top) of the mouse model including the timeline of tamoxifen (TAM) and HDACi (JNJ) injection and tissue collection. Nuclear NICD, a measure of Notch activation, by immunofluorescence (IF). […] FIG. 5E, Quantification of OLFM4^+ stem cells, LYZ+ Paneth cells and AB/PAS+ goblet cells in proximal jejunal crypts by IHC. […] FIG. 5G, Quantification and representative images of tdTomato+ Lgr5^+ ISC-derived lineage (cell progenies) by IHC. […] For box-and-whisker plots (FIG. 5C) data were expressed as box-and-whisker 10 to 90 percentiles, Data in bar graph (FIG. 5D) and dot plot (FIG. 5E and FIG. 5G) are expressed as mean+/−s.e.m. *p<0.05, **p<0.01, ***p<0.005, ****p<0.0001. […]
As previously reported and briefly summarized here (Mihaylova et al., 2018), small intestines were removed, washed with cold PBS, opened longitudinally and then incubated on ice with PBS plus EDTA (10 mM) for 30-45 min. […] Isolated crypts for cultures were counted and embedded in Matrigel™ (Corning 356231 growth factor reduced) at 5-10 crypts per μL and cultured in a modified form of medium as described previously (Sato et al., 2009; Yilmaz et al., 2012). […]

class I HDACs = conditions: reported (Shimazu et al., 2013); cited from earlier work

SMILES: Nc1ccccc1NC(=O)c1ccc(CNC(=O)OCc2cccnc2)cc1 [MS-275, Entinostat (MS-275)]
- Hmgcs2-null organoid function (Hmgcs2-null ISCs; 10-to-100 nM): rescued
- Hmgcs2-null organoid function (Hmgcs2-null ISCs; doses beyond 10-to-100 nM): failed to do so

SMILES: CC(O)C(=O)O (centres unmarked) [lactate]
- organoid-forming capacity of Hmgcs2-null ISCs (Hmgcs2-null ISCs; βOHB 10 uM and 50 uM): not
- organoid-forming capacity of Hmgcs2-null ISCs (Hmgcs2-null ISCs; βOHB 10 uM and 50 uM, listed as Lactate): did not affect

SMILES: Cn1cc(CNCC2CCN(c3ncc(C(=O)NO)cn3)CC2)c2ccccc21 [Quisinostat, Quisinostat (JNJ-26481585) 2HCl]
- ISC function after injury (Lgr5+ ISCs): rescued
- decline in ISCs numbers (OLFM4+ stem cells) (intestinal crypts): rescued
- decrease in numbers of H3K27ac or NICD positive crypt cell nuclei (intestinal crypts): prevented these changes
- expansion of secretory cell types (intestinal crypts): rescued
- GFP expression of Hes1-GFP organoids (NOTCH target gene expression) (Hes1-GFP organoids): increased GFP expression
- crypt organoid-forming capacity of Hmgcs2-null crypts (Hmgcs2-null ISCs; HDAC inhibitor at a dose shown to block HDAC1 activity, alone or with βOHB): rescued crypt organoid-forming capacity

SMILES: CC(O)CC(=O)O (stereo not drawn) [βOHB, β-hydroxybutyrate]
- inhibition of class I HDACs (class I HDACs): endogenous inhibitor for class I HDACs
- GFP expression of Hes1-GFP organoids (NOTCH target gene expression) (Hes1-GFP organoids): increased GFP expression
- secretory lineage bias of Hmgcs2-null organoids (Hmgcs2-null ISCs; βOHB 10 uM and 50 uM, Alcian blue+ goblet cells): rectified
- organoid-forming capacity of Hmgcs2-null ISCs (Hmgcs2-null ISCs; βOHB 10 uM and 50 uM): rectified
- generation of tdTomato+ clones by Hmgcs2-null ISCs (Hmgcs2-null ISCs; βOHB 10 uM and 50 uM, tdTomato+ area per organoid): rectified

SMILES: O=C(O)CC[C@H]1CC[C@@](c2cc(F)ccc2F)(S(=O)(=O)c2ccc(Cl)cc2)CC1 [GSI, MK-0752]
- GFP expression of Hes1-GFP organoids (NOTCH target gene expression) (Hes1-GFP organoids): dampened GFP expression
- restoration of organoid-forming capacity of Hmgcs2-null crypts by βOHB or JNJ under NOTCH blockade (Hmgcs2-null ISCs; GSI added to βOHB or JNJ treated cultures): prevented the ability of either βOHB or JNJ HDAC inhibitor
